The target of assay [1] is 5α-reductase (Mus musculus, UniProt Q68FF9). In words: 5α-Reductase Inhibition Test (decrease in absorbance at 340 nm, NADPH/testosterone). In kind it is biochemical. Particulars: for A: absorbance decrease at 340 nm. Here is the method: • (1) Test drug: Sample of Example 52 • (2) Positive control drug: Finasteride, a product of Merck Sharp & Dohme Limited; Appearance: Film-coated tablets, white after removal of the coating; Specification: 5 mg/tablet; Batch number: 0022050. Storage conditions: light-shielded, airtight, and stored at room temperature. • (3) Drug preparation: The sample of Example 52 was tested at 10 concentrations: 35 mg/mL (solute: the sample of Example 52, solvent: 20% aqueous ethanol solution) was adopted as the initial concentration, and nine 2.5-fold gradient dilutions were made by using 20% aqueous ethanol solution; and five 2-fold gradient dilutions of the positive control finasteride were made by using anhydrous ethanol. • (4) Reagents: Reduced coenzyme II (NADPH), a product of Sigma, Catalog number N7505, Batch number 041939; testosterone (T), a product of Merck, Catalog number T-037; Batch number FE03112002; Tris buffer: Shanghai Yuanye Biotechnology Co., Ltd., Batch number J17HR10516A. • (5) Test instrument: ZDN microplate reader, a product of BioTek.
Mouse liver was obtained by dissection, and was added into a Tris buffer at a ratio of 1:5 for homogenization at 0°C. The homogenized liver was centrifuged at 10000g for 15 minutes, the supernatant was centrifuged at 55000g for another hour, and then the supernatant was placed at 4°C for later use. Reagents and samples were added according to the reaction system. Sample of Example 52 and finasteride sample at each dilution were added 4 times. After incubation at 37°C for 60 minutes, the decrease in absorbance ΔA at 340nm was measured. Inhibition rate (%) = (blank ΔA−sample ΔA)/(blank ΔA) × 100 [formula]
The 5α-reductase reaction system is shown in Table 16: Table 16 Reagent amount for the reaction system (µL)

For assay [2], the system named is Malassezia. In words: Malassezia antibacterial test (microbroth method, OD600 after 72 hours). The format is cell-based. Particulars: Ketoconazole 4µg/mL, read-out: Malassezia inhibition rate, positive control. The method, then: A culture medium and Malassezia were mixed thoroughly by shaking until no sediment was present at the bottom. A sterile syringe was used to pipette 200-800 µL of the bacterial suspension into fresh culture medium and incubate at 30°C in a biochemical incubator. After 2-3 days of incubation, the sample was subcultured.
A sterile malt extract culture medium was transferred into a sterile 50mL centrifuge tube. The sterile malt extract culture medium was centrifuged at 25°C and 3500 rpm for 10 minutes. The supernatant was transferred to another sterile 50mL centrifuge tube for later use.
Each sample was diluted with fresh culture medium to a concentration of 50 mg/mL, 40 mg/mL, 30 mg/mL, 20 mg/mL, 10 mg/mL, or 5 mg/mL.
The culture medium and Malassezia were mixed thoroughly by shaking and transferred to a sterile 50mL centrifuge tube. The mixture was centrifuged at 25°C and 1000 rpm for 30 seconds. The supernatant was transferred to a sterile 50 mL centrifuge tube and centrifuge at 25°C and 3500 rpm for 10 minutes.
A microplate reader was set at a wavelength of 600 nm. […] The OD600 value of the bacterial suspension was detected at 600 nm. […]
The required volume of bacterial suspension was calculated. […]
The sterile 96-well culture plate was placed in a 30°C incubator. After 72 hours of incubation, the absorbance at 600nm was recorded. […]

5α-reductase, sequence (Q68FF9 whole entry): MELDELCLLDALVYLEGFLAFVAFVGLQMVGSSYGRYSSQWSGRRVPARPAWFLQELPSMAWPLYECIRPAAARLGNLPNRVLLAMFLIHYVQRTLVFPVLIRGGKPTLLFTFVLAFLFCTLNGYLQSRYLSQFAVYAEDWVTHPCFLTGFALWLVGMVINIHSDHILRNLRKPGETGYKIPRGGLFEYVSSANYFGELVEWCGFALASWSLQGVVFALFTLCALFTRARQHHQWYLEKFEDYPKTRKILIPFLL

On to `CC(C)(C)NC(=O)[C@H]1CC[C@H]2[C@@H]3CC[C@H]4NC(=O)C=C[C@]4(C)[C@H]3CC[C@]12C` [Finasteride], for which the inhibition at 0.003 µg/mL in assay [1] (Finasteride 0.003 µg/mL, read-out: Inhibition rate) worked out at 6.12%. Also, the inhibition at 0.006 µg/mL in assay [1] (Finasteride 0.006 µg/mL, read-out: Inhibition rate) came out at 15.4%. In addition, the inhibition at 0.012 µg/mL in assay [1] (Finasteride 0.012 µg/mL, read-out: Inhibition rate) worked out at 26.3%. In addition, in assay [1] (Finasteride 0.025 µg/mL, read-out: Inhibition rate), the inhibition at 0.025 µg/mL was found to be 39.2%. Further, the inhibition at 0.05 µg/mL in assay [1] (Finasteride 0.050 µg/mL, read-out: Inhibition rate) amounted to 63.1%. Moreover, the A in assay [1] (Finasteride 0.003 µg/mL) turned out to be 0.10; in assay [1] (Finasteride 0.012 µg/mL) it was 0.08; in assay [1] (Finasteride 0.025 µg/mL), 0.07; in assay [1] (Finasteride 0.050 µg/mL), 0.04.
As for `CC(=O)N1CCN(c2ccc(OCC3COC(Cn4ccnc4)(c4ccc(Cl)cc4Cl)O3)cc2)CC1` (stereo not shown) [Ketoconazole], the inhibition at 4 µg/mL in assay [2] is 95 ± 3.59%.

For the origin of these results see EP4691473A1, “PLATYCLADUS ORIENTALIS EXTRACT, PREPARATION METHOD THEREFOR AND USE THEREOF” (Beijing Academy of TCM Beauty Supplements Co., Ltd., priority 2023, dated 2024).
